Patent publication EP2608671B1, “COMPOUNDS FOR TREATMENT OF CANCER” (Gtx, Inc., priority 2010, dated 2012)
Structures can show the parent of a compound that is named as a salt. Where two headings read alike, the source gives them in different places.

Legend:
[1] = tested on: melanoma cell lines (A375, WM-164, B16-F1) and prostate cancer cell lines (LNCaP, DU 145, PC-3, PPC-1); assay: SRB cytotoxicity, melanoma and prostate cell panel (averages); type: cell-based
Excerpt: (§1) The only compounds which belong to the invention are the ones falling under the scope of formula (XI).

B16-F1 = assay: SRB cell growth inhibition (cytotoxicity) assay; type: cell-based, mouse; conditions: Mus musculus
Excerpt: as §1

A375 = assay: SRB cell growth inhibition (cytotoxicity) assay; type: cell-based, human; conditions: Homo sapiens
PC-3 = assay: cells; conditions: Homo sapiens
Excerpt: as §1
Cells were stained with SRB solution.
Cells. […] Cells between the third and fifth passages were used for experiments.
Cell growth inhibition studies. […] Cells were stained with sulphorhodamine B (SRB) solution.

DU 145 = assay: cells; conditions: Homo sapiens
LNCaP = assay: cells; conditions: Homo sapiens
PPC-1 = assay: cells; conditions: Homo sapiens
WM-164 = assay: SRB cell growth inhibition (cytotoxicity) assay; type: cell-based, human; conditions: Homo sapiens
[2] = B16-F1, read-out: IC50 ± SEM (nM), B16-F1
[3] = A-375, 96 h, read-out: IC50 ± SEM (nM), A375
[4] = PC-3, 96 h, read-out: IC50 ± SEM (nM), PC-3
[5] = Prostate cell, Table 2, read-out: IC50 range over tested melanoma and prostate cell lines
[6] = DU-145, 96 h, read-out: IC50 ± SEM (nM), DU 145
[7] = 96 h, read-out: IC50 ± SEM (nM), LNCaP
[8] = PPC-1, 96 h, read-out: IC50 ± SEM (nM), PPC-1
[9] = DU-145, 96 h, read-out: IC50 ± SEM (nM) Du 145
[10] = B16-F1 melanoma cells, 48 h, SRB, read-out: IC50 ± SEM (nM) B16-F1
[11] = A-375, A375 melanoma cells, 48 h, SRB, read-out: IC50 ± SEM (nM) A375
[12] = WM164 melanoma cells, 48 h, SRB, read-out: IC50 ± SEM (nM) WM164
[13] = Prostate cell, read-out: IC50 (average over cell lines)
[14] = B16-F1, read-out: IC50 (nM), B16-F1
[15] = A-375, read-out: IC50 (nM), A375
[16] = WM164, read-out: IC50 (nM), WM164
[17] = PC-3, read-out: IC50 (nM), PC-3
[18] = DU-145, read-out: IC50 (nM), DU 145
[19] = PPC-1, read-out: IC50 (nM), PPC-1
[20] = B16-F1, Table 6A, read-out: IC50 (nM), B16-F1
[21] = A-375, Table 6A, read-out: IC50 (nM), A375
[22] = WM164, Table 6A, read-out: IC50 (nM), WM164

COc1cc(C(=NN)c2csc(-c3ccccc3)n2)cc(OC)c1OC (mixture of isomers) [2d]
IC50 ([1]; Table 2, read-out: IC50 range over tested melanoma and prostate cell lines): ~1000 nM

COc1cc(/C(=N/O)c2csc(-c3ccccc3)n2)cc(OC)c1OC [2e-cis, (Z)-(2-Phenylthiazol-4-yl)(3,4,5-trimethoxyphenyl)methanone oxime]
IC50 (B16-F1; [2]): 300 ± 100 nM
IC50 (A375; [3]): 200 ± 100 nM
IC50 (PC-3; [4]): 120 nM
IC50 [1, 5]: 100 to 300 nM
IC50 (DU 145; [6]): 102 nM
IC50 (LNCaP; [7]): 189 nM
IC50 (PPC-1; [8]): 160 nM

COc1cc(/C(=N\O)c2csc(-c3ccccc3)n2)cc(OC)c1OC [2e-trans, (E)-(2-Phenylthiazol-4-yl)(3,4,5-trimethoxyphenyl)methanone oxime]
IC50 (B16-F1; [2]): 11400 ± 2100 nM
IC50 (A375; [3]): 7800 ± 1200 nM
IC50 (PC-3; [4]): > 10000 nM
IC50 [1, 5]: > 10000 nM
IC50 (DU 145; [6]): > 10000 nM
IC50 (LNCaP; [7]): > 10000 nM
IC50 (PPC-1; [8]): > 10000 nM

COc1cc(C(=O)c2cn(C)c(-c3ccc(C)cc3)n2)cc(OC)c1OC [12dab, (1-methyl-2-(p-tolyl)-1H-imidazol-4-yl)(3,4,5-trimethoxyphenyl)methanone]
IC50 (B16-F1; B16-F1, 48 h, read-out: IC50 ± SEM (nM) B16-F1): 134 nM
IC50 (A375; A-375, 48 h, read-out: IC50 ± SEM (nM) A375): 32 nM
IC50 (WM-164; WM164, 48 h, read-out: IC50 ± SEM (nM) WM164): 40 nM
IC50 (PC-3; [4]): 46 nM
IC50 (DU 145; [9]): 36 nM
IC50 (LNCaP; [7]): 32 nM
IC50 (PPC-1; [8]): 28 nM

Cc1ccc(-c2nc(C(=O)c3ccc(F)cc3)c[nH]2)cc1 [12db-HCl, (4-fluorophenyl)(2-(p-tolyl)-1H-imidazol-4-yl)methanone HCl salt]
IC50 (A375; A-375, 48 h, read-out: IC50 ± SEM (nM) A375, A375 melanoma cells, 48 h, SRB): 108 ± 11 nM
IC50 ([1]; ABI compounds, Tables 11-13, HCl salt, read-out: IC50 (average over cell lines)): 172 nM

COc1cc(C(=O)c2c[nH]c(-c3ccc(C)cc3)n2)cc(OC)c1O [12dc, (4-hydroxy-3,5-dimethoxyphenyl)(2-(p-tolyl)-1H-imidazol-4-yl)methanone]
IC50 (B16-F1; [10]): 387 nM
IC50 (A375; [11]): 105 nM
IC50 (WM-164; [12]): 123 nM
IC50 (PC-3; [4]): 127 nM
IC50 (DU 145; [9]): 174 nM
IC50 (LNCaP; [7]): 134 nM
IC50 (PPC-1; [8]): 110 nM

COc1cc(C(=O)c2c[nH]c(-c3cc(OC)c(OC)c(OC)c3)n2)cc(OC)c1OC [12ea, (3,4,5-trimethoxyphenyl)(2-(3,4,5-trimethoxyphenyl)-1H-imidazol-4-yl)methanone]
IC50 (PC-3; [4]): > 10000 nM
IC50 [1, 13]: > 10000 nM
IC50 (DU 145; [9]): > 10000 nM
IC50 (LNCaP; [7]): > 10000 nM
IC50 (PPC-1; [8]): > 10000 nM

COc1cc(-c2nc(C(=O)c3ccc(F)cc3)c[nH]2)cc(OC)c1OC [12eb, (4-fluorophenyl)(2-(3,4,5-trimethoxyphenyl)-1H-imidazol-4-yl)methanone]
IC50 (PC-3; [4]): > 10000 nM
IC50 [1, 13]: > 10000 nM
IC50 (DU 145; [9]): > 10000 nM
IC50 (LNCaP; [7]): > 10000 nM
IC50 (PPC-1; [8]): > 10000 nM

COc1ccc(S(=O)(=O)n2cc(C(=O)c3ccc(F)cc3)nc2-c2ccc(N(C)C)cc2)cc1 [12gba, (2-(4-(dimethylamino)phenyl)-1-((4-methoxyphenyl)sulfonyl)-1H-imidazol-4-yl)(4-fluorophenyl)methanone]
IC50 (B16-F1; [10]): ~100 nM
IC50 (A375; [11]): ~100 nM
IC50 (WM-164; [12]): ~100 nM
IC50 (PC-3; [4]): 44.1 nM
IC50 (DU 145; [9]): 129 nM
IC50 (LNCaP; [7]): 73.2 nM
IC50 (PPC-1; [8]): 63.4 nM

COc1cc(C(=O)c2c[nH]c(-c3ccc(Br)cc3)n2)cc(OC)c1OC [12la, (2-(4-bromophenyl)-1H-imidazol-4-yl)(3,4,5-trimethoxyphenyl)methanone]
IC50 (B16-F1; [10]): 74 nM
IC50 (A375; [11]): 32 nM
IC50 (WM-164; [12]): 36 nM
IC50 (PC-3; [4]): 36 nM
IC50 (DU 145; [9]): 49 nM
IC50 (LNCaP; [7]): 34 nM
IC50 (PPC-1; [8]): 33 nM

COc1cc(C(=O)c2c[nH]c(-c3ccc(C(F)(F)F)cc3)n2)cc(OC)c1OC [12pa, (2-(4-(trifluoromethyl)phenyl)-1H-imidazol-4-yl)(3,4,5-trimethoxyphenyl)methanone]
IC50 (B16-F1; [10]): 469 nM
IC50 (A375; [11]): 163 nM
IC50 (WM-164; [12]): 175 nM
IC50 (PC-3; [4]): 127 nM
IC50 (DU 145; [9]): 174 nM
IC50 (LNCaP; [7]): 134 nM
IC50 (PPC-1; [8]): 110 nM

O=C(c1cc(O)c(O)c(O)c1)c1c[nH]c(-c2cc(O)c(O)c(O)c2)n1 [13ea, (3,4,5-trihydroxyphenyl)(2-(3,4,5-trihydroxyphenyl)-1H-imidazol-4-yl)methanone]
IC50 (B16-F1; [10]): > 10000 nM
IC50 (A375; [11]): > 10000 nM
IC50 (WM-164; [12]): > 10000 nM
IC50 (PC-3; [4]): > 10000 nM
IC50 (DU 145; [9]): > 10000 nM
IC50 (LNCaP; [7]): > 10000 nM
IC50 (PPC-1; [8]): > 10000 nM

O=C(c1cc(O)c(O)c(O)c1)c1c[nH]c(-c2ccc(Cl)cc2)n1 [13fa, (2-(4-chlorophenyl)-1H-imidazol-4-yl)(3,4,5-trihydroxyphenyl)methanone]
IC50 (PC-3; [4]): 10000 nM
IC50 [1, 13]: 3890 nM
IC50 (DU 145; [9]): 10000 nM
IC50 (LNCaP; [7]): 10000 nM
IC50 (PPC-1; [8]): > 10000 nM

COc1cc(C(=O)c2c[nH]c(-c3ccc4[nH]c(C(=O)c5cc(OC)c(OC)c(OC)c5)cc4c3)n2)cc(OC)c1OC [15xaa, (5-(4-(3,4,5-Trimethoxybenzoyl)-1H-imidazol-2-yl)-1H-indol-2-yl)(3,4,5-trimethoxyphenyl)methanone]
IC50 (B16-F1; [14]): 1390 nM
IC50 (A375; [15]): 1800 nM
IC50 (WM-164; [16]): 1700 nM
IC50 (PC-3; [17]): 2630 nM
IC50 (DU 145; [18]): 5920 nM
IC50 (LNCaP; read-out: IC50 (nM), LNCaP): 1070 nM
IC50 (PPC-1; [19]): 4580 nM

COc1cc(C(=O)c2cn(S(=O)(=O)c3ccccc3)c(-c3ccc4c(c3)cc(C(=O)c3cc(OC)c(OC)c(OC)c3)n4S(=O)(=O)c3ccccc3)n2)cc(OC)c1OC [16xaa, (1-(Phenylsulfonyl)-2-(1-(phenylsulfonyl)-2-(3,4,5-trimethoxybenzoyl)-1H-indol-5-yl)-1H-imidazol-4-yl)(3,4,5-trimethoxyphenyl)methanone]
IC50 (B16-F1; [14]): > 10000 nM
IC50 (A375; [15]): > 10000 nM
IC50 (WM-164; [16]): > 10000 nM
IC50 (PC-3; [17]): > 10000 nM
IC50 (DU 145; [18]): > 10000 nM
IC50 (LNCaP; read-out: IC50 (nM), LNCaP): > 10000 nM
IC50 (PPC-1; [19]): > 10000 nM

O=C(c1csc(-c2cc3ccccc3[nH]2)n1)c1cc2ccccc2[nH]1 [compound 8, (2-(1H-Indol-2-yl)thiazol-4-yl)(1H-indol-2-yl)methanone]
IC50 (B16-F1; [20]): 570 nM
IC50 (A375; [21]): 318 nM
IC50 (WM-164; [22]): 404 nM
IC50 (PC-3; [17]): 704 nM
IC50 (DU 145; [18]): 580 nM
IC50 (LNCaP; read-out: IC50 (nM), LNCaP): 346 nM
IC50 (PPC-1; [19]): 230 nM

COc1cc(C(=NC#N)c2csc(-c3ccccc3)n2)cc(OC)c1O [compound 32, N-((4-hydroxy-3,5-dimethoxyphenyl)(2-phenylthiazol-4-yl)methylene)cyanamide]
IC50 (B16-F1; [20]): > 10000 nM
IC50 (A375; [21]): 2700 nM
IC50 (WM-164; [22]): 2600 nM
IC50 (PC-3; [17]): 2290 nM
IC50 (DU 145; [18]): 4600 nM
IC50 (LNCaP; read-out: IC50 (nM), LNCaP): 1660 nM
IC50 (PPC-1; [19]): 1170 nM
